# Test results: PubChem BioAssay (NCI)
# “And” between values parts separate entries of the source, which are not always exact repeats. Equal values may be shown once.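 Following 48 hours of exposure in 96-well plates, responses at five concentrations were used to interpolate endpoints linearly. The concentration for 50% growth inhibition is given as GI50. TGI is the concentration that stops growth completely.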
# What was measured:
# Experiment in all cases: NCI tumour cell line growth inhibition, 48 h
# ACHN renal = tested on: ACHN renal
# DMS 273 small cell lung = tested on: DMS 273 small cell lung
# HCC-2998 colon = tested on: HCC-2998 colon
# KM20L2 colon = tested on: KM20L2 colon
# M19-MEL melanoma = tested on: M19-MEL melanoma
# P388 leukemia = tested on: P388 leukemia
# P388/ADR leukemia = tested on: P388/ADR leukemia
# DMS 114 small cell lung = tested on: DMS 114 small cell lung
# HOP-18 NSCLC = tested on: HOP-18 NSCLC
# LXFL 529 NSCLC = tested on: LXFL 529 NSCLC
# SN12K1 renal = tested on: SN12K1 renal
SMILES,GI50 (ACHN renal) [µM],TGI (ACHN renal) [µM],TGI (DMS 273 small cell lung) [µM],GI50 (HCC-2998 colon) [µM],TGI (HCC-2998 colon),TGI (KM20L2 colon) [µM],TGI (M19-MEL melanoma) [µM],TGI (P388 leukemia) [µM],TGI (P388/ADR leukemia) [µM],TGI (DMS 114 small cell lung) [µM],TGI (HOP-18 NSCLC) [µM],TGI (LXFL 529 NSCLC) [µM],TGI (SN12K1 renal) [µM]
COc1ccc(CC2C(=O)NC(C)C(=O)N(C)C3Cc4ccc(cc4)Oc4cc(ccc4O)CC(C(=O)NC(C)C(=O)NC(C)C(=O)N2C)N(C)C3=O)cc1 (stereo not drawn),0.45,45,0.0532,< 0.0001,0.0168 µM and 0.0292 µM,0.49,0.0192,0.0177,20.6,–,–,–,–
COc1ccc(-c2c(C(C)=O)c(C)n(C3OC(CO)C(O)C(O)C3O)c(=S)c2C#N)cc1 (stereo not drawn),–,> 100,–,–,–,–,–,–,–,–,–,–,–
NC(CO)c1ccccc1 (stereo not drawn),–,> 100,> 100,–,> 100 µM,> 100,–,–,–,> 100,96.1,> 100,–
CCOC(=O)C(Cc1c(-c2[nH]c3ccccc3c2CC(NC(=O)CNC(C)=O)C(=O)OCC)[nH]c2ccccc12)NC(=O)CNC(C)=O (stereo not drawn),–,–,–,–,47.8 µM,–,–,–,–,–,–,–,–
CC(=O)c1nccc2c1c(C)nc1ccccc12,–,> 100,–,–,–,–,–,–,–,–,–,–,–
C=C1C(=O)C[C@@]23CCC[C@@]12CC(O)C3 (stereo partly drawn),–,–,45.8,–,> 62.1 µM,47.9,> 70.2,25.3,32.4,38.3,37.4,–,39.6
